Tests used:
[1] = target: T1, Adenosylhomocysteinase (Homo sapiens, UniProt P23526); assay: Inhibition of S-adenosyl-L-homocysteine hydrolase, inactivation rate constant.
Target sequence in this assay (P23526 whole entry): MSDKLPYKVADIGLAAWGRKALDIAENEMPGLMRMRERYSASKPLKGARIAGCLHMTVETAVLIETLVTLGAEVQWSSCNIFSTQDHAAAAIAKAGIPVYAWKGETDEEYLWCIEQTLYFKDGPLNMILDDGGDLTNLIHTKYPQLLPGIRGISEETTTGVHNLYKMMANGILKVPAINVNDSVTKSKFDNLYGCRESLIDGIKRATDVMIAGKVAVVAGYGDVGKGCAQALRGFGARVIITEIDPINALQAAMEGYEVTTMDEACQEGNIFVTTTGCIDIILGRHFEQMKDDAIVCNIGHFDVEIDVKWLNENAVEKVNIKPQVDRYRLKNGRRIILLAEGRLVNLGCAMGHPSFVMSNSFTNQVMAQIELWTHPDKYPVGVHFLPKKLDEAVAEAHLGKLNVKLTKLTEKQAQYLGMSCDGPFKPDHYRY

[2] = target: T1, Adenosylhomocysteinase
Target sequence in this assay (P23526 2-432 limits assumed): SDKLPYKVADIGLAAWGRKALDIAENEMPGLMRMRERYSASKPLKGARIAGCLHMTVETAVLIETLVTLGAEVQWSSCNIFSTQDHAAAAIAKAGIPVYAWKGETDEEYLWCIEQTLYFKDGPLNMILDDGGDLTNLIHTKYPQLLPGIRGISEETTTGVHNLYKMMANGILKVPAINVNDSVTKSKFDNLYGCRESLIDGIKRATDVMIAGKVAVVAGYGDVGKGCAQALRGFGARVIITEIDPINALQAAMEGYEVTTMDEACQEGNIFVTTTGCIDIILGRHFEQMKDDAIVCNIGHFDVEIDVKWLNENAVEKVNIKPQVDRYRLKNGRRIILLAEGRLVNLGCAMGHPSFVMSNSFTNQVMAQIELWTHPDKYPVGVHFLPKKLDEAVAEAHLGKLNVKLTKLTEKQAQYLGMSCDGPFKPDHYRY
Description: Inhibition of S-adenosyl-L-homocysteine hydrolase, dissociation constant.

`NC(=O)[C@H]1OC(n2cnc3c(N)ncnc32)[C@H](O)[C@@H]1O` (stereo partly drawn) gave a Ki [1] of 2600 nM and a K2 [2] of 0.1 min⁻¹.

For `Nc1ncnc2c1ncn2C1O[C@H](C(=O)OCc2ccccc2)[C@@H](O)[C@H]1O` (stereo partly drawn), the Ki [1] was 360 nM and the K2 [2] was 0.017 min⁻¹.

Work on `CNC(=O)[C@H]1O[C@@H](n2cnc3c(N)ncnc32)[C@H](O)[C@@H]1O` yielded a Ki [1] of 1930 nM and a K2 [2] of 0.095 min⁻¹.

`COC(=O)[C@H]1O[C@@H](n2cnc3c(N)ncnc32)[C@H](O)[C@@H]1O` gave a Ki [1] of 1700 nM and a K2 [2] of 0.78 min⁻¹.

`Nc1ncnc2c1ncn2C1O[C@H](C(=O)NCc2ccccc2)[C@@H](O)[C@H]1O` (stereo partly drawn) gave a Ki [1] of 43400 nM and a K2 [2] of 0.03 min⁻¹.

Compound `CCCCOC(=O)[C@H]1OC(n2cnc3c(N)ncnc32)[C@H](O)[C@@H]1O` (stereo partly drawn) has a Ki [1] of 710 nM and a K2 [2] of 0.11 min⁻¹.

`Nc1ncnc2c1ncn2C1O[C@H](C(=O)Nc2ccccc2)[C@@H](O)[C@H]1O` (stereo partly drawn) gave a Ki [1] of 48500 nM and a K2 [2] of 0.028 min⁻¹.

Work on `Nc1ncnc2c1ncn2C1O[C@H](C(=O)OCCCl)[C@@H](O)[C@H]1O` (stereo partly drawn) yielded a Ki [1] of 320 nM and a K2 [2] of 0.35 min⁻¹.

Work on `Nc1ncnc2c1ncn2[C@@H]1O[C@H](C(=O)O)[C@@H](O)[C@H]1O` [5'-CARBOXY ADENOSINE] yielded a Ki [1] of 410 nM and a K2 [2] of 0.045 min⁻¹.

Work on `Nc1ncnc2c1ncn2[C@@H]1O[C@H](C=O)[C@@H](O)[C@H]1O` yielded a Ki [1] of 39 nM and a K2 [2] of 0.65 min⁻¹.

For `CC(C)OC(=O)[C@H]1OC(n2cnc3c(N)ncnc32)[C@H](O)[C@@H]1O` (stereo partly drawn), the Ki [1] was 770 nM and the K2 [2] was 0.064 min⁻¹.

Compound `CC(C)COC(=O)[C@H]1OC(n2cnc3c(N)ncnc32)[C@H](O)[C@@H]1O` (stereo partly drawn) has a Ki [1] of 570 nM and a K2 [2] of 0.077 min⁻¹.

In the case of `CCN(CC)C(=O)[C@H]1OC(n2cnc3c(N)ncnc32)[C@H](O)[C@@H]1O` (stereo partly drawn), the Ki [1] is reported as 570 nM and the K2 [2] is reported as 0.05 min⁻¹.

`CCCCNC(=O)[C@H]1OC(n2cnc3c(N)ncnc32)[C@H](O)[C@@H]1O` (stereo partly drawn) showed a Ki [1] of 19800 nM and a K2 [2] of 0.03 min⁻¹.

— ChEMBL document CHEMBL1129443, “Inactivation of S-adenosyl-L-homocysteine hydrolase by amide and ester derivatives of adenosine-5'-carboxylic acid” (J Med Chem, 1996)
